Test: recombinant barcode read abundance after kanamycin selection (control-corrected) (log10(CPM+1)); higher = more efficient recombination; sequences stand for … in AGTGCAGAGAAAATCGGCCAGTTTTCTCTGCCTGCAGTCCGCATGCCGT…AGATTTATGCAGCGGACTGCCTTTCTCCCAAAGTGATAAACCGGACAGTATCATGGACCGGTTTTCCCGGTAATCCGTATTTGCAAGGTTGGTTTCACT; site = the 11-nt target
How it was run: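 Pooled oligos, each joining a target to an IS621 bridge RNA target-binding loop, were cloned and co-electroporated with a donor plasmid into E. coli. Selective plates carried chloramphenicol/ampicillin/kanamycin and 0.1 mM IPTG, while chloramphenicol/ampicillin LB agar served as control, with two replicates of each. Recombination efficiency rests on averaged, control-corrected counts per million of barcodes at recombinant junctions, shown as log10(CPM+1).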
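Note: IS621 recombinase and bridge RNA in Escherichia coli cells.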

Row | Sequence | recombinant barcode read abundance (log10)
1 | GGCGCGTCTTGGGTTCTAACCTGTTGCAT (site GGCGCGTCTAT) | 0.589
2 | GGCGGCCCTTGGGTTCTAACCTGTTGCGG (site GACTGCCCTCC) | 0.103
3 | GGCGGCCCTTGGGTTCTAACCTGTTGCGG (site GGCGGCCCTCC) | 2.31
4 | GGCGTGCCTTGGGTTCTAACCTGTTGCGT (site AAGAACTCTTG) | 0.0755
5 | GGCGTGCCTTGGGTTCTAACCTGTTGCGT (site GGCGTGCCTAC) | 2.95
6 | GGCGTGTCTTGGGTTCTAACCTGTTGCGG (site GACGTGTCTCG) | 0.125
7 | GGCGTGTCTTGGGTTCTAACCTGTTGCGG (site GGCGTGTCTCC) | 2.07
8 | GGCTAGTCTTGGGTTCTAACCTGTTGCTT (site GGATTGTCTAA) | 0.109
9 | GGCTAGTCTTGGGTTCTAACCTGTTGCTT (site GGCTAGTCTAA) | 0.561
10 | GGCTCTACTTGGGTTCTAACCTGTTGCGG (site GGCTAGACTCC) | 0.0656
11 | GGCTCTACTTGGGTTCTAACCTGTTGCGG (site GGCTCTACTCC) | 0.326
12 | GGCTCTTCTTGGGTTCTAACCTGTTGCCT (site GGCACTTCTAG) | 0.221
13 | GGCTCTTCTTGGGTTCTAACCTGTTGCCT (site GGCTCTTCTAG) | 0.332
14 | GGCTGTCCTTGGGTTCTAACCTGTTGCGT (site CTAAAAGCTTT) | 0.0937
15 | GGCTGTCCTTGGGTTCTAACCTGTTGCGT (site GGCTGTCCTAC) | 0.751
16 | GGGAACCCTTGGGTTCTAACCTGTTGCTG (site GGGAACCCTAA) | 0.0418
17 | GGGAACCCTTGGGTTCTAACCTGTTGCTG (site GGGAACCCTCA) | 1.5
18 | GGGAACCCTTGGGTTCTAACCTGTTGCTG (site GGGAACCCTGA) | 0.0561
19 | GGGAACCCTTGGGTTCTAACCTGTTGCTG (site GGGAACCCTTA) | 0.867
20 | GGGACAACTTGGGTTCTAACCTGTTGCCT (site GGGACAACTAG) | 0.0953
21 | GGGACAACTTGGGTTCTAACCTGTTGCCT (site GGGGTAACTAG) | 0.0828
22 | GGGACTACTTGGGTTCTAACCTGTTGCGG (site CGGGCTACTCC) | 0.0949

Row | Sequence | recombinant barcode read abundance (log10)
23 | GGGACTACTTGGGTTCTAACCTGTTGCGG (site GGGACTACTCC) | 1.86
24 | GGGACTTCTTGGGTTCTAACCTGTTGCAT (site GGGACTTCTAT) | 0.937
25 | GGGACTTCTTGGGTTCTAACCTGTTGCAT (site GGGCCTTCTAT) | 0.0615
26 | GGGACTTCTTGGGTTCTAACCTGTTGCAT (site GGGGCTTCTAT) | 0.273
27 | GGGACTTCTTGGGTTCTAACCTGTTGCAT (site GGGTCTTCTAT) | 0.164
28 | GGGATGGCTTGGGTTCTAACCTGTTGCCT (site GGGATGGCTAG) | 1.32
29 | GGGATGGCTTGGGTTCTAACCTGTTGCCT (site TGGATGGCTAG) | 0.0489
30 | GGGCAACCTTGGGTTCTAACCTGTTGCGT (site GGGCAACCTAC) | 2.84
31 | GGGCAACCTTGGGTTCTAACCTGTTGCGT (site GGGCAGCCTAG) | 0.117
32 | GGGCACACTTGGGTTCTAACCTGTTGCAC (site CTTGCATCTAG) | 0.244
33 | GGGCACACTTGGGTTCTAACCTGTTGCAC (site GGGCACACTGT) | 2.52
34 | GGGCACACTTGGGTTCTAACCTGTTGCCA (site GGGAACACTTG) | 0.193
35 | GGGCACACTTGGGTTCTAACCTGTTGCCA (site GGGCACACTTG) | 0.698
36 | GGGCATCCTTGGGTTCTAACCTGTTGCAT (site GGGCATCCTAT) | 1.82
37 | GGGCATCCTTGGGTTCTAACCTGTTGCAT (site TCATTAGCTCG) | 0.246
38 | GGGCCCGCTTGGGTTCTAACCTGTTGCGG (site GGACGCGCTCC) | 0.111
39 | GGGCCCGCTTGGGTTCTAACCTGTTGCGG (site GGGCCCGCTCC) | 1.29
40 | GGGCCTACTTGGGTTCTAACCTGTTGCTA (site GGGCCTACTAA) | 0.0406
41 | GGGCCTACTTGGGTTCTAACCTGTTGCTA (site GGGCCTACTCA) | 0.642
42 | GGGCCTACTTGGGTTCTAACCTGTTGCTA (site GGGCCTACTGA) | 0.482
43 | GGGCCTACTTGGGTTCTAACCTGTTGCTA (site GGGCCTACTTA) | 1.36
44 | GGGCCTACTTGGGTTCTAACCTGTTGCTG (site GGGCCTACTAA) | 0.165

Row | Sequence | recombinant barcode read abundance (log10)
45 | GGGCCTACTTGGGTTCTAACCTGTTGCTG (site GGGCCTACTCA) | 2.06
46 | GGGCCTACTTGGGTTCTAACCTGTTGCTG (site GGGCCTACTGA) | 0.215
47 | GGGCCTACTTGGGTTCTAACCTGTTGCTG (site GGGCCTACTTA) | 0.121
48 | GGGGAATCTTGGGTTCTAACCTGTTGCAT (site GGGGAATCTAT) | 1.96
49 | GGGGAATCTTGGGTTCTAACCTGTTGCAT (site GGGGACTCTGT) | 0.079
50 | GGGGACTCTTGGGTTCTAACCTGTTGCAC (site GGGGAATCTAT) | 0.0994
51 | GGGGACTCTTGGGTTCTAACCTGTTGCAC (site GGGGACTCTGT) | 3.1
52 | GGGGCACCTTGGGTTCTAACCTGTTGCTA (site GGGGCACCTTA) | 2.35
53 | GGGGCACCTTGGGTTCTAACCTGTTGCTA (site TGGGCACCTAA) | 0.128
54 | GGGGCGCCTTGGGTTCTAACCTGTTGCCT (site GGGGCGACTAG) | 0.44
55 | GGGGCGCCTTGGGTTCTAACCTGTTGCCT (site GGGGCGCCTAG) | 1.76
56 | GGGGCGCCTTGGGTTCTAACCTGTTGCCT (site GGGGCGGCTAG) | 0
57 | GGGGCGCCTTGGGTTCTAACCTGTTGCCT (site GGGGCGTCTAG) | 0.279
58 | GGGGTGTCTTGGGTTCTAACCTGTTGCCG (site ATTTAACCTAC) | 0.0514
59 | GGGGTGTCTTGGGTTCTAACCTGTTGCCG (site GGGGTGTCTCG) | 0.675
60 | GGGGTGTCTTGGGTTCTAACCTGTTGCTG (site GGGCTGTCTAA) | 0.448
61 | GGGGTGTCTTGGGTTCTAACCTGTTGCTG (site GGGGTGTCTCA) | 0.413
62 | GGGGTTCCTTGGGTTCTAACCTGTTGCAT (site GGGGTTCCTAA) | 0.164
63 | GGGGTTCCTTGGGTTCTAACCTGTTGCAT (site GGGGTTCCTAC) | 0.129
64 | GGGGTTCCTTGGGTTCTAACCTGTTGCAT (site GGGGTTCCTAG) | 1.19
65 | GGGGTTCCTTGGGTTCTAACCTGTTGCAT (site GGGGTTCCTAT) | 2.47
66 | GGGTCACCTTGGGTTCTAACCTGTTGCGG (site CCAAAGACTAA) | 0.564

Row | Sequence | recombinant barcode read abundance (log10)
67 | GGGTCACCTTGGGTTCTAACCTGTTGCGG (site GGGTCACCTCC) | 2.8
68 | GGGTCCACTTGGGTTCTAACCTGTTGCGG (site GGGTCCACTCC) | 2.02
69 | GGGTCCACTTGGGTTCTAACCTGTTGCGG (site GGGTCCACTTG) | 0.143
70 | GGGTCGCCTTGGGTTCTAACCTGTTGCTT (site CGGCCGCCTAA) | 0.364
71 | GGGTCGCCTTGGGTTCTAACCTGTTGCTT (site GGGTCGCCTAA) | 0.128
72 | GGGTCGGCTTGGGTTCTAACCTGTTGCGT (site GGGTCGGCTAC) | 2.68
73 | GGGTCGGCTTGGGTTCTAACCTGTTGCGT (site GGGTCGGCTCC) | 0.076
74 | GGGTCGGCTTGGGTTCTAACCTGTTGCGT (site GGGTCGGCTGC) | 0.347
75 | GGGTCGGCTTGGGTTCTAACCTGTTGCGT (site GGGTCGGCTTC) | 0.0402
76 | GGGTCTTCTTGGGTTCTAACCTGTTGCAT (site GGGACTTCTAT) | 0.0343
77 | GGGTCTTCTTGGGTTCTAACCTGTTGCAT (site GGGCCTTCTAT) | 0.152
78 | GGGTCTTCTTGGGTTCTAACCTGTTGCAT (site GGGGCTTCTAT) | 0.0588
79 | GGGTCTTCTTGGGTTCTAACCTGTTGCAT (site GGGTCTTCTAT) | 0.575
80 | GGGTTTGCTTGGGTTCTAACCTGTTGCCT (site GAGTTTGCTAG) | 0
81 | GGGTTTGCTTGGGTTCTAACCTGTTGCCT (site GCGTTTGCTAG) | 0.0869
82 | GGGTTTGCTTGGGTTCTAACCTGTTGCCT (site GGGTTTGCTAG) | 1.14
83 | GGGTTTGCTTGGGTTCTAACCTGTTGCCT (site GTGTTTGCTAG) | 0.667
84 | GGTACTACTTGGGTTCTAACCTGTTGCAT (site CGTACTACTGT) | 0.0302
85 | GGTACTACTTGGGTTCTAACCTGTTGCAT (site GGTACTACTAT) | 0.54
86 | GGTAGATCTTGGGTTCTAACCTGTTGCTT (site GGTAGATCTAA) | 0.599

— the supplement of paper PMC11208160
